From US20200061035A1 (Heron Therapeutics, Inc., priority 2016, published 2020)

Experiments:
[1] = Pharmacokinetic analysis of granisetron and olanzapine formulation in canines (plasma concentration by LC/MS/MS); format: in vivo; conditions: both sexes, dog, dogs, same formulation, approx. 5 mg granisetron, read-out: Average Plasma Concentrations of Granisetron
Procedure: Plasma samples were taken from each dog at the following time points: 0, 0.5, 1, 3, 6, 8, 24, 48, 72, 96, 120 hours, and frozen.

[2] = cited from earlier work

Row | concentration at 0.5 h ([1]; 0.5 hrs) [ng/mL] | concentration at 1 h ([1]; 1 hr) [ng/mL] | concentration at 3 h ([1]; 3 hrs) [ng/mL] | concentration at 6 h ([1]; 6 hrs) [ng/mL] | concentration at 8 h ([1]; 8 hrs) [ng/mL] | concentration at 24 h ([1]; 24 hrs) [ng/mL] | concentration at 48 h ([1]; 48 hrs) [ng/mL] | concentration at 72 h ([1]; 72 hrs) [ng/mL] | concentration at 96 h ([1]; 96 hrs) [ng/mL] | concentration at 120 h ([1]; 120 hrs) [ng/mL] | SMILES | Solubility in water [2]
1 | 11.7 | 14.3 | 14.2 | 10.7 | 8.02 | 6.82 | 3.27 | 1.54 | 0.95 | 0.4 | CN1C2CCCC1CC(NC(=O)c1nn(C)c3ccccc13)C2 (centres unmarked) [Granisetron, granisetron] | 
2 |  |  |  |  |  |  |  |  |  |  | Cc1cc2c(s1)Nc1ccccc1N=C2N1CCN(C)CC1 [Olanzapine, 2-methyl-10-(4-methyl-1-piperazinyl)-4H-thieno[2,3-b][1,5]benzodiazepine] | practically insoluble
